According to ChEMBL document CHEMBL1201862, “PubChem BioAssay data set” (2004):
Values joined by “and” are separate entries in the source; they are usually repeats but may differ in a detail not shown here. Identical values can stand only once.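 These data come from cells grown in 96-well plates and exposed to compound for 48 hours at five concentrations. GI50: concentration for 50% inhibition of growth.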 Active and inactive are the calls of the source. Cut-off read from the data, not from the text of the source: active = GI50 up to about 1.1 µM and inactive = higher.

What was measured:
Experiment in all cases: inhibition of tumour cell growth, NCI panel, 48 h
[1] = system: SW-620
[2] = system: 786-0
[3] = system: A549
[4] = system: SR
[5] = system: HCT-15
[6] = system: NCI-H23
[7] = system: SK-OV-3
[8] = system: SNB-75
[9] = system: BT-549
[10] = system: NCI-H226
[11] = system: M14
[12] = system: RXF 393
[13] = system: HCC 2998
[14] = system: EKVX
[15] = system: SN12C
[16] = system: RPMI-8226
[17] = system: SK-MEL-5
[18] = system: HT-29
[19] = system: DU-145
[20] = system: K562
[21] = system: NCI/ADR-RES
[22] = system: A498
[23] = system: HOP-92
[24] = system: SNB-19
[25] = system: HCT-116
[26] = system: UACC-257
[27] = system: MDA-N
[28] = system: T47D
[29] = system: COLO 205
[30] = system: Malme-3M
[31] = system: CAKI-1
[32] = system: KM12
[33] = system: OVCAR-4
[34] = system: SF-295
[35] = system: SF-268
[36] = system: MDA-MB-435
[37] = system: SK-MEL-2
[38] = system: CCRF-CEM
[39] = system: LOX IMVI
[40] = system: NCI-H460
[41] = system: OVCAR-3
[42] = system: TK-10
[43] = system: HOP-62
[44] = system: MCF7
[45] = system: MOLT-4
[46] = system: MDA-MB-231
[47] = system: PC-3
[48] = system: Hs-578T
[49] = system: OVCAR-5
[50] = system: U-251
[51] = system: OVCAR-8
[52] = system: HL-60
[53] = system: SF-539
[54] = system: ACHN
[55] = system: NCI-H522
[56] = system: SK-MEL-28
[57] = system: UO-31
[58] = system: IGROV-1
[59] = system: UACC-62

## C=CCN1C(=O)/C(=C/c2ccc(OC)cc2)N=C1SC1OC(COC(C)=O)C(OC(C)=O)C(OC(C)=O)C1OC(C)=O (centres undefined)
[1]
  GI50: 60 µM (inactive) and 36.9 µM (inactive)
[2]
  GI50: 17.2 µM (inactive)
[3]
  GI50: 34.8 µM (inactive)
[4]
  GI50: 34.5 µM (inactive) and 25.9 µM (inactive)
[5]
  GI50: 36.4 µM and 43.7 µM
[6]
  GI50: 33.5 µM (inactive) and 36.9 µM (inactive)
[7]
  GI50: 18.1 µM (inactive) and 34.7 µM (inactive)
[8]
  GI50: 19.1 µM (inactive) and 35.5 µM (inactive)
[9]
  GI50: 27.2 µM (inactive) and 19.8 µM (inactive)
[10]
  GI50: 21.6 µM (inactive) and 32.1 µM (inactive)
[11]
  GI50: 39.4 µM (inactive)
[12]
  GI50: 27 µM (inactive) and 25.3 µM (inactive)
[13]
  GI50: 39.7 µM (inactive) and 64.3 µM (inactive)
[14]
  GI50: 28.2 µM (inactive) and 21.4 µM (inactive)
[15]
  GI50: 29.6 µM (inactive)
[16]
  GI50: 32.8 µM (inactive) and 43.3 µM (inactive)
[17]
  GI50: 19.5 µM (inactive) and 29 µM (inactive)
[18]
  GI50: 8.45 µM (inactive)
[19]
  GI50: 23.4 µM (inactive) and 45.3 µM (inactive)
[20]
  GI50: 36.7 µM (inactive) and 24.5 µM (inactive)
[21]
  GI50: 30.8 µM (inactive) and 48.8 µM (inactive)
[22]
  GI50: 31.9 µM (inactive) and 32.4 µM (inactive)
[23]
  GI50: 12.7 µM (inactive) and 17.3 µM (inactive)
[24]
  GI50: 32 µM (inactive)
[25]
  GI50: 30.8 µM (inactive)
[26]
  GI50: 29.4 µM (inactive) and 20.7 µM (inactive)
[27]
  GI50: 37.8 µM (inactive)
[28]
  GI50: 23.8 µM (inactive)
[29]
  GI50: 67.8 µM (inactive) and 41.3 µM (inactive)
[30]
  GI50: 44.2 µM (inactive) and 57.5 µM (inactive)

## CCOc1ccnc2c(OC)c(C)c3nc4ccccc4nc3c12
[31]
  GI50: > 100 µM (inactive)
[32]
  GI50: 86.5 µM (inactive)
[33]
  GI50: > 100 µM (inactive)
[1]
  GI50: > 100 µM (inactive)
[2]
  GI50: > 100 µM (inactive)
[34]
  GI50: > 100 µM (inactive)
[35]
  GI50: > 100 µM (inactive)
[3]
  GI50: > 100 µM (inactive)
[4]
  GI50: 18.6 µM (inactive)
[5]
  GI50: 12.8 µM
[6]
  GI50: > 100 µM (inactive)
[36]
  GI50: > 100 µM (inactive)
[7]
  GI50: > 100 µM (inactive)
[37]
  GI50: > 100 µM (inactive)
[8]
  GI50: 25.3 µM (inactive)
[38]
  GI50: > 100 µM (inactive)
[10]
  GI50: > 100 µM (inactive)
[39]
  GI50: > 100 µM (inactive)
[11]
  GI50: > 100 µM (inactive)
[40]
  GI50: > 100 µM (inactive)
[41]
  GI50: > 100 µM (inactive)
[42]
  GI50: > 100 µM (inactive)
[43]
  GI50: > 100 µM (inactive)
[12]
  GI50: 8.39 µM (inactive)
[13]
  GI50: > 100 µM (inactive)
[14]
  GI50: > 100 µM (inactive)
[44]
  GI50: 26 µM (inactive)
[15]
  GI50: > 100 µM (inactive)
[45]
  GI50: 82.6 µM (inactive)
[16]
  GI50: > 100 µM (inactive)
[46]
  GI50: > 100 µM (inactive)
[47]
  GI50: 89.3 µM (inactive)
[17]
  GI50: > 100 µM (inactive)
[48]
  GI50: > 100 µM (inactive)
[18]
  GI50: 72.8 µM (inactive)
[19]
  GI50: 41 µM (inactive)
[20]
  GI50: 98.6 µM (inactive)
[49]
  GI50: > 100 µM (inactive)
[21]
  GI50: 71.1 µM (inactive)
[50]
  GI50: > 100 µM (inactive)
[22]
  GI50: > 100 µM (inactive)
[23]
  GI50: 93.8 µM (inactive)
[24]
  GI50: > 100 µM (inactive)
[51]
  GI50: 57.4 µM (inactive)
[52]
  GI50: > 100 µM (inactive)
[25]
  GI50: > 100 µM (inactive)
[26]
  GI50: > 100 µM (inactive)
[53]
  GI50: > 100 µM (inactive)
[27]
  GI50: > 100 µM (inactive)
[28]
  GI50: 3.31 µM (inactive)
[54]
  GI50: > 100 µM (inactive)
[29]
  GI50: > 100 µM (inactive)
[55]
  GI50: > 100 µM (inactive)
[30]
  GI50: > 100 µM (inactive)
[56]
  GI50: > 100 µM (inactive)
[57]
  GI50: > 100 µM (inactive)
[58]
  GI50: 52.1 µM (inactive)

## O=C(O)c1ccccc1C(=O)NCC1S(=O)(=O)OCCOS1(=O)=O
[31]
  GI50: > 100 µM (inactive)
[33]
  GI50: > 100 µM (inactive)
[1]
  GI50: > 100 µM (inactive)
[2]
  GI50: > 100 µM (inactive)
[34]
  GI50: > 100 µM (inactive)
[35]
  GI50: > 100 µM (inactive)
[3]
  GI50: > 100 µM (inactive)
[4]
  GI50: > 100 µM (inactive)
[5]
  GI50: > 100 µM
[6]
  GI50: > 100 µM (inactive)
[36]
  GI50: > 100 µM (inactive)
[7]
  GI50: > 100 µM (inactive)
[37]
  GI50: > 100 µM (inactive)
[8]
  GI50: > 100 µM (inactive)
[38]
  GI50: > 100 µM (inactive)
[10]
  GI50: > 100 µM (inactive)
[39]
  GI50: > 100 µM (inactive)
[11]
  GI50: > 100 µM (inactive)
[40]
  GI50: > 100 µM (inactive)
[41]
  GI50: > 100 µM (inactive)
[42]
  GI50: > 100 µM (inactive)
[43]
  GI50: > 100 µM (inactive)
[12]
  GI50: > 100 µM (inactive)
[13]
  GI50: > 100 µM (inactive)
[14]
  GI50: > 100 µM (inactive)
[44]
  GI50: > 100 µM (inactive)
[15]
  GI50: > 100 µM (inactive)
[45]
  GI50: > 100 µM (inactive)
[16]
  GI50: > 100 µM (inactive)
[46]
  GI50: > 100 µM (inactive)
[47]
  GI50: > 100 µM (inactive)
[17]
  GI50: > 100 µM (inactive)
[48]
  GI50: > 100 µM (inactive)
[18]
  GI50: > 100 µM (inactive)
[19]
  GI50: > 100 µM (inactive)
[20]
  GI50: > 100 µM (inactive)
[49]
  GI50: > 100 µM (inactive)
[21]
  GI50: > 100 µM (inactive)
[50]
  GI50: > 100 µM (inactive)
[22]
  GI50: > 100 µM (inactive)
[23]
  GI50: > 100 µM (inactive)
[24]
  GI50: > 100 µM (inactive)
[51]
  GI50: > 100 µM (inactive)
[52]
  GI50: > 100 µM (inactive)
[25]
  GI50: > 100 µM (inactive)
[26]
  GI50: > 100 µM (inactive)
[53]
  GI50: > 100 µM (inactive)
[27]
  GI50: > 100 µM (inactive)
[28]
  GI50: > 100 µM (inactive)
[54]
  GI50: > 100 µM (inactive)
[59]
  GI50: > 100 µM (inactive)
[29]
  GI50: > 100 µM (inactive)
[55]
  GI50: > 100 µM (inactive)
[30]
  GI50: > 100 µM (inactive)
[56]
  GI50: > 100 µM (inactive)
[57]
  GI50: > 100 µM (inactive)
[58]
  GI50: > 100 µM (inactive)
